Values of other authors, collected in patent US8241397B2, “Adsorptive gas sampler using ionic nano-droplets” (Honeywell International Inc., priority 2008, dated 2012).

Conditions: water uptake

SMILES	Solubility of solvent H2O in ionic liquid (% w/w)
CCCCn1cc[n+](C)c1.O=S(=O)([N-]S(=O)(=O)C(F)(F)F)C(F)(F)F [[C4MIM][TF2N], [C4MIM] bis(trifluoromethylsulfonyl) imide]	1.17
CCCCCCn1cc[n+](C)c1.O=S(=O)([N-]S(=O)(=O)C(F)(F)F)C(F)(F)F [[C6MIM][TF2N]]	0.88
CCCCCCCCn1cc[n+](C)c1.O=S(=O)([N-]S(=O)(=O)C(F)(F)F)C(F)(F)F [[C8MIM][TF2N]]	0.74
